The nature of one data set: Solubility. The format is physicochemical. To be noted: aqueous buffer, kinetic from dmso stock; PBS(Ph 7.4), 1 hour shaking at room temperature; read-out: Solubility SolubilityU (um). On the procedure: 10 μL test compound was added to 990 μL buffer. Sample tubes were shaken for 1 hour (1000 rpm) at room temperature. Samples were centrifuged for 10 minutes at 1200 rpm to precipitate un-dissolved particles. Supernatants were collected for LCMSMS or LC-UV analysis.

Data set [1] in a line: Plasma protein binding by dialysis. The data set is classed as in vitro ADME. To be noted: rat plasma; for Protein Binding Fu(%) / fraction unbound at 5 h, 1 μM: 1 μM, 5 hours dialysis at 37° C.; for fraction unbound at 5 h, 1 μM: read-out: Protein Binding Fraction unbound (fu) (converted). The procedure: The following solutions were prepared: Solution A (0.5 mM) 10 μL of 10 mM stock solution was added into 190 μL of DMSO and Solution B (0.02 mM): 8 μL of Solution A was added into 192 μL of 0.05 M sodium phosphate buffer. The final DMSO concentration in Solution B is 4%.
A 96-well plate was preloaded with 380 μL aliquots of plasma in the wells designated for plasma and buffer, respectively. 20 μL of Solution B (0.02 mM of test and reference compounds) was spiked into the pre-loaded plasma in the 96-well plate. The final test concentration was 1 μM containing 0.2% DMSO.
Aliquots of 100 μL of blank dialysis buffer were applied to the receiver side of dialysis chambers. Next aliquots of 100 μL of the plasma spiked with test and reference compounds were applied to the donor side of the dialysis chambers. Blank buffer was added to the receiver first and the buffer and plasma chambers were clearly marked to avoid cross contamination.
Aliquots of 25 μL of plasma spiked with test and reference compounds were placed in 96-well sample preparation plates as t=0 min plasma samples. The aliquots were mixed with the same volume of blank buffer (50:50, v/v). The samples were quenched with 200 μL of acetonitrile containing internal standard (IS). The dialysis block was covered with a plastic lid and the entire apparatus was placed on a shaker (60 rpm) for 5 hours at 37° C.
25 μL aliquot from both the donor sides and receiver sides of the dialysis apparatus were placed into new sample preparation plates and mixed with the same valune of opposite matrixes (blank buffer to plasma and vice versa). The sample was quenched with 200 μL acetonitrile containing internal standard. All the samples from 0 hour to 5 hours were vortexed at 600 rpm for 10 minutes followed by centrifugation at 5594 g for 15 minutes (Thermo Multifuge×3R). 50 μL of the supernatant was transferred to a new 96-well plate and the sample was mized with 50 μL of Mili-Q water. The sample plate was covered and stored in a −20° C. freezer. The samples were subsequently analyzed by LC/MS/MS.

A further data set concerns the target T1, CYP1A2 (Homo sapiens, UniProt P05177).
T1 construct: from tissue; host or cells: liver microsomes (HLM)
T1 sequence (P05177 1-516): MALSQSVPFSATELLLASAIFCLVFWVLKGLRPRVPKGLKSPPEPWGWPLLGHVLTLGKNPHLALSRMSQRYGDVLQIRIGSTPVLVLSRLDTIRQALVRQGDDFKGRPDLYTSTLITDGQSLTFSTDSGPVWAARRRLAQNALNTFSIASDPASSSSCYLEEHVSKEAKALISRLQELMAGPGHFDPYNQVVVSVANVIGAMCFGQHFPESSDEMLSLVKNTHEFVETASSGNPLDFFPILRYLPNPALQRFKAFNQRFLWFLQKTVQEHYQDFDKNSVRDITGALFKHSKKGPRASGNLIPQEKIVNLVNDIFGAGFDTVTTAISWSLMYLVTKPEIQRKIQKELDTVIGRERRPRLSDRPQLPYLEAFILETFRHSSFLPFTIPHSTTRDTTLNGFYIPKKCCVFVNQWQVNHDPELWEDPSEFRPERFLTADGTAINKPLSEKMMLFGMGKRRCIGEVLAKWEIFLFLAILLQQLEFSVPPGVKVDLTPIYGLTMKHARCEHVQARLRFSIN
Description: CYP inhibition in HLM, CYP1A2. The data set is classed as in vitro ADME. To be noted: read-out: CYP inhibition (IC50 um) 1A2. On the procedure:
0.1 M potassium phosphate buffer (K-buffer), pH 7.4 was preheated. K-buffer was prepared by mixing 9.5 mL Stock A into 40.5 mL Stock B. The total volume was brought to 500 mL with Milli-Q water. The buffer was titrated with KOH or H3PO4 to pH 7.4. Stock A (1 M monobasic potassium phosphate) was prepared by adding 136.5 g of monobasic potassium phosphate into 1 L of Milli-Q water. Stock B (1 M dibasic potassium phosphate) was prepared by adding 174.2 g of dibasic potassium phosphate in 1 L of Milli-Q water.
Serial dilution for test compound and reference inhibitors (400×) was prepared in a 96-well plate. 8 μL of 10 mM test compounds was transferred to 12 μL of ACN. Inhibitor spiking solution was prepared for CYP1A2, CYP2C9 and CYP2D6 in cocktail by adding 12 μL of 1 mM α-Naphthoflavon, 10 μL of 40 mM Sulfaphenazole, 10 μL of 10 mM Quinidine, and 8 μL of DMSO. Individual inhibitor spiking solution for CYP3A4 and CYP2C19 was prepared by adding 8 μL of DMSO stock to 12 μL of ACN. 1:3 serial dilutions were performed in DMSO:ACN mixture (v/v: 40:60).
NADPH cofactor was prepared by dissolving 66.7 mg NADPH in 10 mL 0.1 M K-buffer, pH7.4. 4×substrate (2 mL for each isoform) was prepared. HLM was added were required on ice. 0.2 mg/mL HLM solution was prepared using 10 μL of 20 mg/mL to 990 μL of 0.1 M K-buffer on ice. 400 μL of 0.2 mg/mL HLM were added to the assay wells and then 2 μL of 400×test compound set were added into the designated wells on ice. 200 μL of 0.2 mg/mL HLM was added to the assay wells and followed by 1 μL of serially diluted reference inhibtor solution into the designated wells on ice. The following solutions were added in duplicated in a 96-well plate on ice: 30 μL of 2×test compound and reference compound in 0.2 mg/mL HLM solution and 15 μL of 4×substrate solution. The 96-well assay plate and NADPH solution were pre-incubated at 37° C. for 5 minutes. 15 μL of pre-warmed 8 mM NADPH solution was added to into the assay plates to initiate the reaction. The assay plate was incubated at 37° C. 5 mins, 10 mins, and 45 mins. […]

A short description of the next data set: in vitro. To be noted: rat, hepatocytes.

Values after ≈ are worked out from the molar mass of the structure shown.

Description for in vitro: Vials with hepatocytes were removed from a liquid nitrogen storage unit and immediately placed in a 37±1° C. shaking water bath for 2 min±15 sec. The hepatocytes were poured into 50 mL of hepatocytes thawing medium, mixed gently, and centrifuged at 500 rpm for 3 minutes. After centrifugation, the supernatant was carefully aspirated without disturbing the pellet. 10× the volume of pre-warmed KHB buffer (Krebs-Henseleit buffer, Sigma Cat #K3753-10X1L) with 5.6 g/L HEPES was used to resuspend the cell pellet. The pellet mixture was centrifuged at 500 rpm for 3 minutes, aspirated, and the supernatant discarded without disturbing the cell pellet. The cell viability and yield were determined. The hepatocytes were counted, and the cell suspensions were diluted to the appropriate cell density. The viable cell density was 2×10^6 cells/mL. The hepatocyte solution was placed on ice until it was used.
Two dosing solutions of prewarmed KHB (1% DMSO) were prepared. 200 μM spiking solution was prepared by adding 20 μL of substrates stock solution (10 mM) into 980 μL of DMSO. Two dosing solutions were prepared by adding 10 μL of 200 μM spiking solution into 990 μL of KHB (2 μM after dilution). The dosing solution was centrifuged at 5594 g for 15 min (Thermo Multifuge×3R). 50 μL of pre-warmed 2×dosing solution was added to the wells designated for the different time points. […] After the addition of the hepatocytes, the timer was started. The assay was placed in an incubator at 37° C. 100 μL of ACN containing IS was added to the wells designed for 0 min, the wells were mixed gently, then 50 μL of pre-warmed hepatocytes solution (2×10^6 cells/mL) was added. The wells were sealed. […] Next, the wells were sealed. After quenching, the plates were shaken on a vibrator (IKA, MTS 2/4) for 10 min at 600 rpm. The plate was sonicated for 2 min and centrifuged at 5594 g for 15 min (Thermo Multifuge×3R). 50 μL of the supernatant was transferred from each well into a 96-well sample plate containing 50 μL of ultra pure water (Millipore, ZMQS50F01) for LC/MS analysis.

For the molecule `CC(C)(NC(=O)[C@H]1[C@@H]2CNC[C@H]1C2)c1ncc2c(Cl)cccn12` [Compound 7, (1R,5S,6r)-N-(2-(8-chloroimidazo[1,5-a]pyridin-3-yl)propan-2-yl)-3-azabicyclo[3.1.1]heptane-6-carboxamide], the solubility at 1 h in “Solubility” was 101.75 ± 0.03 µM (≈ 33.9 µg/mL). In data set [1], the “Protein Binding Category” value was “Moderate”; the recovery at 5 h, 1 µM is 96.6%; the “Protein Binding Fu(%)” value worked out at 37.8%; the free fraction (fraction unbound) at 5 h, 1 μM is 0.378. In addition, on CYP1A2, the IC50 is over 10 µM. For the same molecule, in the data set “in vitro”, the CLint scaled at 1 μM was determined as 5.4 mL/min/kg and the half-life at 1 μM worked out at 10 h.
As for `CC(C)(NC(=O)[C@H]1[C@@H]2CNC[C@H]1C2)c1ncc2c(Br)cccn12` [Compound 8, (1R,5S,6r)-N-(2-(8-bromoimidazo[1,5-a]pyridin-3-yl)propan-2-yl)-3-azabicyclo[3.1.1]heptane-6-carboxamide], the solubility at 1 h in the data set “Solubility” was found to be 91.6 µM (≈ 34.6 µg/mL). Moreover, in data set [1], the “Protein Binding Category” value is “Moderate”; the recovery at 5 h, 1 µM was found to be 103%; the “Protein Binding Fu(%)” value is recorded as 28.16%; the free fraction (fraction unbound) at 5 h, 1 μM is 0.282. The IC50 at CYP1A2 is over 10 µM. Moreover, in “in vitro”, the intrinsic clearance (CLint scaled) at 1 μM is 6.01 mL/min/kg and the half-life at 1 μM came out at 9 h.
Consider `CC(C)(NC(=O)[C@H]1[C@@H]2CNC[C@H]1C2)c1nc(C2CC2)c2ccccn12` [Compound 9, (1R,5S,6r)-N-(2-(1-cyclopropylimidazo[1,5-a]pyridin-3-yl)propan-2-yl)-3-azabicyclo[3.1.1]heptane-6-carboxamide], for which, in “Solubility”, the solubility at 1 h came to 130.5 ± 0.02 µM (≈ 44.2 µg/mL). Further, in data set [1], the “Protein Binding Category” value was “Moderate”; the recovery at 5 h, 1 µM is 68.2%; the “Protein Binding Fu(%)” value is reported as 40.9%; the fraction unbound at 5 h, 1 μM was 0.409. In addition, the IC50 on CYP1A2 was over 10 µM.

A word on the solubility: it is how much of the substance goes into solution per volume. For orientation: fraction unbound means the share of the substance not bound to proteins or other matrix. In general, IC50 refers to the concentration that inhibits the measured activity by half. As a reminder, the CLint scaled is a measure of how fast metabolising enzymes remove a compound, apart from limits set by blood flow. Low readings indicate greater metabolic stability, high ones faster metabolism. Usually half-life stands for the time in which the quantity being followed falls by half. Read a low half-life as rapid decline.

These data come from patent US20240174693A1, “SOMATOSTATIN RECEPTOR SUBTYPE 4 (SSTR4) AGONISTS AND THEIR APPLICATIONS” (Humanwell Pharmaceutical US, priority 2022, published 2024).
